Literature values, collected in US5140036A, “1,3,5-trisubstituted-1,2,4-triazole compounds for treatment of circulatory disorders” (priority 1990, dated 1992).

Tests used:
angiotensin II = details: series of binding experiments, functional assays and in vivo tests
[1] = system: angiotensin II at its receptors; details: commercially-available peptidic angiotensin II antagonists

Row | residual agonist activity [1] | Compound | angiotensin II antagonist activity (angiotensin II)
1 |  | CCCCc1nc(Cl)c(CC(=O)O)n1Cc1ccccc1[N+](=O)[O-] [2-butyl-4-chloro-1-(2-nitrobenzyl)imidazole-5-acetic acid] | specific competitive angiotensin II antagonist activity
2 |  | CCCCc1nc(Cl)c(CC(=O)O)n1Cc1ccccc1Cl [2-n-butyl-4-chloro-1-(2-chlorobenzyl)imidazole-5-acetic acid] | specific competitive angiotensin II antagonist activity
3 | significant residual agonist activity | CNCC(=O)N[C@@H](CCCN=C(N)N)C(=O)N[C@H](C(=O)N[C@@H](Cc1ccc(O)cc1)C(=O)N[C@H](C(=O)N[C@@H](Cc1cnc[nH]1)C(=O)N1CCC[C@H]1C(=O)N[C@@H](C)C(=O)O)C(C)C)C(C)C [Saralasin] | 
